Data reported in article PMC7230232, “Secondary Metabolites from the Culture of the Marine-derived Fungus Paradendryphiella salina PC 362H and Evaluation of the Anticancer Activity of Its Metabolite Hyalodendrin” (Marine Drugs, 2020).
Several values for one entry are separate records, joined by “and”; a condition that tells them apart may be missing. Equal values may be shown once. Read-outs that look alike come from different tables or passages of the source.

Key:
3T3-F442A cells = test: MTT cell viability assay, 3T3-F442A pre-adipocytes; assay type: cell-based, murine; conditions: pure compounds, MTT, read-out: IC50 3T3-F442A
Description: (§1) Cellular viability was determined by the MTT (methylthiazolyldiphenyl-tetrazolium bromide) assay. Briefly, cells were exposed to the indicated concentrations of crude extracts or compounds 1–4 for five doubling times and then incubated for 3 h at 37 °C with MTT. Formazan crystals were then dissolved in DMSO and optical density measured at 570 nm in a microplate reader. The half-maximal inhibitory concentration (IC50) was determined. Values given for crude extracts are averages of at least two experiments done in duplicate. IC50 values calculated for the four isolated compounds and the commercially available 4-hydroxy-tamoxifen (Sigma-Aldrich) are averages of at least three experiments done in duplicate.

MCF7-Sh-WISP2 cells = test: MTT cell viability assay, MCF7-Sh-WISP2; assay type: cell-based, human; conditions: pure compounds, MTT, read-out: IC50 MCF7-Sh-WISP2
Description: as §1

MCF7 cells = test: MTT cell viability assay, MCF7; assay type: cell-based, human; conditions: MTT, read-out: IC50 MCF7
Description: as §1

[1] = system: Plasmodium falciparum (chloroquine-resistant FcB1/Colombia strain); test: Anti-plasmodial assay ([3H]hypoxanthine incorporation); assay type: cell-based; conditions: data not shown, read-out: IC50 against Plasmodium falciparum
Description: Supplementary materials and methods.
The fungus was isolated in January 2012 as an endophyte from the holdfast of P. caniculata harvested in Roscoff (Britany, France). Both morphological assessment and internal transcribed spacer (ITS) sequencing were performed to identify it as Paradendryphiella salina. It is now maintained at the MCAM culture collection (Muséum National d’Histoire Naturelle, Paris) under the number PC 362H.
The anti-plasmodial activity was evaluated against the chloroquine-resistant FcB1/Colombia strain of Plasmodium falciparum. The assay was performed using the method of Desjardins (Desjardins et al., 1979). Extracts and pure compounds were diluted in Dimethyl Sulfoxyde (DMSO) and added to the culture medium (final concentration: 20 µg/mL) in 96-well microplates. Asynchronous parasite cultures were then added (1 % parasitemia and 1 % final hematocrite), and plates were maintained for 24 hours at 37 °C in a candle jar. […] After a cycle of freezing and thawing, the cells were harvested from each well onto glass fiber filters, and the dried filters were counted in a scintillation counter. The growth inhibition for each well was determined by comparison of the radioactivity incorporated into the treated culture with that in the control culture maintained on the same plate. […]

[2] = Homo sapiens, MCF7, pure compounds

In the case of CS[C@]1(CO)C(=O)N(C)[C@](Cc2ccccc2)(SC)C(=O)N1C [Compound 4, (3R, 6R) bisdethiodi(methylthio)hyalodendrin], the IC50 (3T3-F442A cells; Mus musculus) is reported as 92 µg/mL and 26 µM, the IC50 (MCF7-Sh-WISP2 cells; Homo sapiens) is reported as 24 µg/mL and 68 µM and the IC50 (MCF7 cells; [2]) is reported as 15 µg/mL and 42 µM.
“4-hydroxy-tamoxifen [Hydroxi Tamoxifen, reference compound]” showed an IC50 (3T3-F442A cells) of 14.5 µM, an IC50 (MCF7-Sh-WISP2 cells) of 11.6 µM and an IC50 (MCF7 cells; pure compounds) of 8.8 µM.
C[C@H](C(=O)O)[C@H]1CC[C@@]2(C)C3=C(C[C@@H](O)[C@]12C)[C@@]1(C)CC[C@H](O)C(C)(C)C1CC3 (relative stereo) [Compound 1, Dendryphiellide A] gave an IC50 (3T3-F442A cells; Mus musculus) of over 25 mg/L, an IC50 (3T3-F442A cells) of over 60 µM and an IC50 (MCF7-Sh-WISP2 cells; Homo sapiens) of over 25 mg/L. The IC50 (MCF7-Sh-WISP2 cells) was over 60 µM, the IC50 [1] was 65 ± 4.2 µM and the IC50 (MCF7 cells; [2]) was 20 mg/L.
In the case of COC(=O)CNC(=O)CC[C@@H](C)[C@H]1CC[C@H]2[C@H]3C(C[C@H](O)[C@]12C)[C@@]1(C)CC[C@@H](O)C[C@H]1C[C@H]3O (stereo partly shown) [Compound 2, glycocholic acid methyl ester], the IC50 (3T3-F442A cells; Mus musculus) is reported as > 25 µg/mL and > 50 µM, the IC50 (MCF7-Sh-WISP2 cells; Homo sapiens) is reported as > 25 µg/mL and > 50 µM and the IC50 [1] is reported as 20.5 ± 3.5 µM. The IC50 (MCF7 cells; [2]) was > 25 µg/mL and > 50 µM.
